Test: Microindentation as a measure of enamel hardness: softening by 1.0% w/w citric acid pH 3.8 after 120 s treatment
Parameters: species or system human
Conditions: FIG. 1
Protocol: Human enamel chips were mounted in acrylic resin and polished flat using silicon carbide paper (1200 and 2400 grit). The specimens were then randomised and divided into three treatment groups (n=6). The treatment groups were 300 ppm fluoride (sodium fluoride); glycerin-coated titanium dioxide (with a mean particle size of 20 nm) aqueous suspension, 2.5% w/v (UV Titan M212, Kemira, Aston Chemicals); and deionised water. The baseline hardness of each specimen was determined using a Struers Duramin Microindentor, fitted with a Vickers diamond indenter. Hardness values were expressed as Vickers Hardness Numbers (VHN). A load of 1.961N was applied to the specimens, with a dwell time of 20 seconds.
Specimens were placed in 30 ml of one of the three test solutions with agitation for 120 seconds, before rinsing with deionised water. After treatment, microhardness measurements were repeated. Erosion was then performed by incubating the mounted specimens for 30 minutes in 10 ml of a 1.0% w/w solution of citric acid, pH 3.8. Specimens were removed from the erosive challenge at 10 minute intervals and the surface microhardness determined.
The values for enamel hardness have been normalised relative to the individual baseline microhardness values, thus data at subsequent time points reflects softening of the enamel. The error bars in FIG. 1 represent standard deviations.
The treatments tested in this study were: 2.5% w/v titanium dioxide aqueous suspensions, specifically 20 nm glycerin-coated titanium dioxide (UV Titan M212, Kemira, Aston Chemicals), 20 nm PVP-coated titanium dioxide (UV Titan M263, Kemira, Aston Chemicals), 17 nm Stearic acid-coated titanium dioxide (UV Titan M160, Kemira, Aston Chemicals) and 14 nm uncoated titanium dioxide (UV Titan X140, Kemira, Aston Chemicals). A glycerin only negative control was used in the study.

In the case of `[F-].[Na+]` [300 ppm fluoride, sodium fluoride], the “enamel softening (microhardness normalised to baseline) during citric acid exposure” value (1.0% w/w citric acid pH 3.8, up to 30 min, 120 s treatment) is reported as “softened during the period in which they were exposed to citric acid, increasingly so as the incubation time increased”, the “enamel softening versus water-treated enamel” value (after 20 and 30 mins in citric acid) is reported as “softened significantly less than enamel treated with water” and the “extent of enamel softening, fluoride versus nanoparticle suspension” value (after 20 mins citric acid exposure) is reported as “equivalent in their extent of softening”.

Reference: patent US20100291163A1, “ORAL CARE COMPOSITION COMPRISING NANOPARTICULATE TITANIUM DIOXIDE” (priority 2006, published 2010)
